Laboratory results taken from patent US7432228B2, “Inhibitor against biosynthesis of abscisic acid” (Riken, priority 2001, dated 2008).

What was measured:
[1] = tested on: abscisic acid biosynthesis; conditions: reported in Plant Physiology (1992) 99, 1258-1260; cited from earlier work
[2] = tested on: epoxycarotenoid dioxygenase (NCED); assay: Inhibitory action against epoxycarotenoid dioxygenase (NCED): cleavage reaction of neoxanthin; type: biochemical; conditions: concentration of 100 μM
Procedure: The inhibitory action against epoxycarotenoid dioxygenase was studied. The test was carried out according to the method described in The Plant Journal (2001) 27(4), 325-333.
The NCED inhibitory activity of the compounds of the present invention was studied.

spinach = assay: Inhibitory test against pore closing; type: in vivo; conditions: for inhibitory activities against pore closing: plants with open pores treated with compound, transferred into mannose solution of high concentration
Procedure: Inhibitory tests against pore closing were carried out by using the aforementioned compounds. In these tests, plants in the state that their pores are open are treated with the compounds, and closings of the pores are examined when the plants are transferred into a mannose solution of high concentration to make the pores closed. Pore closing is caused by the effect of abscisic acid biosynthesized in the body of a plant that has detected the change of the mannose concentration. The test was carried out according to the method described in the literature of Plant Physiology (1992) 99, 1258-1260 and by using spinach as a material.

Mung bean = assay: Root length of cut Mung bean hypocotyls soaked in compound solutions; type: in vivo; conditions: Mung bean hypocotyls soaked by 2 cm in compound solution at a given concentration; 6th day after soaking
Procedure: The compounds of the present invention were applied to plant bodies. Hypocotyls of Mung bean on the 6th-day after seeding, that were grown at 25° C., were cut in water with razor, and the hypocotyl parts were soaked by 2 cm in solutions of the compounds at a given concentration. On the 6th day after the soaking, the lengths of the roots were measured. The following results were shown as an average length per root.

seeds of barley = assay: Germination rate of barley seeds; type: in vivo; conditions: barley seeds with lowered germination rate; 100 seeds, test solution at a given concentration, light, 25° C., after one week
Procedure: In the test, 2 sheets of filter paper were placed in a 15 cm laboratory dish, and each of the test solutions of the compounds at a given concentration (10 ml) was added to the dish, and 100 seeds were put on the paper and cultured under a light at 25° C. Ratios of germinated seeds were calculated after one week.

| Compound | inhibitory action on the abscisic acid biosynthesis [1] | inhibition of the cleavage reaction of neoxanthin by NCED [2] | pore closing when treated plants were added with abscisic acid (spinach; compound-treated plants, abscisic acid added) | Length (cm), average length per root (Mung bean) | inhibitory activities against pore closing (spinach) | Germination rate (%) (seeds of barley) |
| --- | --- | --- | --- | --- | --- | --- |
| CC(Cc1ccc(O)c(O)c1)C(C)Cc1ccc(O)c(O)c1 (centres unmarked) [NDGA, 4,4′-(2,3-dimethyl-1,4-butanediyl)bis-1,2-benzenediol] | inhibitory action on the abscisic acid biosynthesis | completely inhibited | did not close |  |  |  |
| COc1ccc(NCC=Cc2ccc(OC)c(OC)c2)cc1 [SY87, [3-(3,4-dimethoxy-phenyl)-allyl]-(4-methoxy-phenyl)-amine] |  |  |  | 0.6 cm | potent inhibitory activities | 40% |
| COc1ccc(CNCCc2ccc(O)cc2)cc1OC [SY88, 4-[2-(3,4-dimethoxy-benzylamino)-ethyl]-phenol] |  |  |  | >0.1 cm |  | 8% |
| Oc1ccc(CCNCc2ccc(O)c(O)c2)cc1 [SY90, 4-{[2-(4-hydroxy-phenyl)-ethylamino]-methyl}-benzene-1,2-diol] |  |  |  | >0.1 cm |  | 12% |
| COC(=O)COc1ccc(CCN(CC(=O)OC)Cc2ccc(OC)c(OC)c2)cc1 [SY94, {(3,4-dimethoxy-benzyl)-[2-(4-methoxycarbonylmethoxy-phenyl)-ethyl]-amino}-acetic acid methyl ester] |  |  |  | 2.1 cm | potent inhibitory activities | 52% |
| COc1ccc(C=CCNCc2ccc(F)cc2)cc1OC [SY95, [3-(3,4-dimethoxy-phenyl)-allyl]-(4-fluoro-benzyl)-amine] |  |  |  | 0.6 cm | potent inhibitory activities | 29% |
| COc1ccc(CCN(C)Cc2ccc(OC)c(OC)c2)cc1 [SY96, (3,4-dimethoxy-benzyl)-[2-(4-methoxy-phenyl)-ethyl]-methyl-amine] |  |  |  | 1.5 cm | potent inhibitory activities | 21% |
| COC(=O)CN(CC=Cc1ccc(OC)c(OC)c1)Cc1ccc(F)cc1 [SY97, [[3-(3,4-dimethoxy-phenyl)-allyl]-(4-fluoro-benzyl)-amino]-acetic acid methyl ester] |  |  |  | 0.7 cm | potent inhibitory activities | 18% |
| COc1ccc(C=CCN(C)Cc2ccc(F)cc2)cc1OC [SY99, [3-(3,4-dimethoxy-phenyl)-allyl]-(4-fluoro-benzyl)-methyl-amine] |  |  |  | 0.4 cm | potent inhibitory activities | 15% |
| Oc1ccc(CCNCc2ccncc2)cc1 [SY106, 4-{2-[(pyridin-4-ylmethyl)-2-amino]-ethyl}-phenol] |  |  |  | >0.1 cm |  | 9% |
| Oc1ccc(CCNCc2ccoc2)cc1 [SY107, 4-{2-[(furan-3-ylmethyl)-amino]-ethyl}-phenol] |  |  |  | >0.1 cm |  | 10% |
| Oc1ccc(CCNCc2ccccc2O)cc1 [SY109, 4-[2-(2-hydroxy-benzylamino)-ethyl]-phenol] |  |  |  | 1.5 cm | potent inhibitory activities | 35% |
